Source: ChEMBL document CHEMBL1148055, “Bioactive terpenoids from Octocorallia, I. Bioactive diterpenoids: litophynols A and B from the mucus of the soft coral Litophyton sp” (J Nat Prod, 1994)

Assay: Toxicity against rabbit RBC assessed as hemolytic activity after 15 mins
Type: cell-based, Oryctolagus cuniculus
Conditions: erythrocyte, 0.25 h

SMILES | Activity
C=C1CC[C@H](C(C)C)[C@@H]2[C@H]1[C@H]1C[C@](C)(O)[C@@H](O)CC[C@@](C)(OC(=O)CCC)[C@@H]2O1 [LITOPHYNIN E] | Toxic
C=C1[C@@H]2[C@H]([C@H](C(C)C)C[C@H]1OC(C)=O)[C@@H]1O[C@H]2C[C@](C)(O)[C@H](O)CC[C@@]1(C)OC(=O)CCC [LITOPHYNIN I MONOACETATE] | Toxic
C=C1CC[C@H](C(C)C)[C@@H]2[C@H]1[C@@H]1O[C@H]2[C@](C)(OC(=O)CCC)CC[C@H](O)C(=C)[C@H]1O [LITOPHYNOL A] | Toxic
C=C1CC[C@H](C(C)C)[C@@H]2[C@H]1[C@@H]1O[C@H]2[C@](C)(OC(=O)CCC)CC[C@H](O)[C@@](C)(O)[C@H]1O [LITOPHYNOL B] | Toxic
